{"source": "paper PMC4580393", "about": "(British Journal of Cancer, 2015)", "key": {"[1]": {"conditions": "following intravenous administration; no reference given; cited from earlier work"}, "[2]": {"test": "Plasma pharmacokinetics of irinotecan and SN-38 with and without pimasertib", "conditions": "for Ratio of AUC(0–∞) test/reference / Ratio of Cmax test/reference: day 1 with pimasertib / day 15 without pimasertib"}, "[3]": {"test": "Dose-limiting toxicities and MTD of pimasertib combined with FOLFIRI", "type": "in vivo, human"}, "[4]": {"tested_on": "KRAS mt mCRC", "test": "Best overall response by RECIST v1.0, FOLFIRI plus pimasertib second-line", "type": "in vivo, human", "conditions": "45 or 60 mg per day plus FOLFIRI"}, "[5]": {"conditions": "ref Awada et al, 2012, cited from earlier work"}, "[6]": {"test": "Treatment-emergent adverse events, FOLFIRI plus pimasertib", "type": "in vivo, human"}, "[7]": {"test": "Single-dose plasma pharmacokinetics of pimasertib with and without FOLFIRI", "type": "in vivo, human", "conditions": "for Ratio of AUC(0–∞) test/reference / Ratio of Cmax test/reference / CL/f: median; for Ratio of AUC(0–∞) test/reference / Ratio of Cmax test/reference: day 1 with FOLFIRI / day 8 alone"}, "[8]": {"tested_on": "human liver microsomes", "conditions": "in vitro, ref Merck, data on file; cited from earlier work"}, "[9]": {"conditions": "45 mg per day pimasertib cohort"}, "[10]": {"conditions": "median, irinotecan 180 mg m^−2 infusion, day 1, with pimasertib (test)"}, "[11]": {"conditions": "median, irinotecan 180 mg m^−2 infusion, day 15, without pimasertib (reference)"}}, "data": [{"compound": "O=c1[nH]cc(F)c(=O)[nH]1", "note": "[5-FU, 5-fluorouracil]", "values": [{"measurement": "mean apparent terminal half-life", "setting": "[1]", "result": "~16", "unit": "min"}]}, {"compound": "CCc1c2c(nc3ccc(O)cc13)-c1cc3c(c(=O)n1C2)COC(=O)[C@]3(O)CC", "note": "[SN-38]", "values": [{"measurement": "increase in Cmax with coadministration of pimasertib", "setting": "[2]; [9]", "result": 11, "unit": "%"}, {"measurement": "reduction of exposure (AUC0–∞) in the presence of pimasertib", "setting": "[2]; [9]", "result": 9, "unit": "%"}, {"measurement": "Ratio of AUC(0–∞) test/reference", "setting": "[2]; median", "result": 0.91}, {"measurement": "Ratio of Cmax test/reference", "setting": "[2]; median", "result": 1.11}, {"measurement": "AUC(0–t)", "setting": "[2]; [10]", "result": 150, "unit": "ng·h/mL"}, {"measurement": "AUC(0–∞)", "setting": "[2]; [10]", "result": 198, "unit": "ng·h/mL"}, {"measurement": "Cmax", "setting": "[2]; [10]", "result": 20.4, "unit": "ng/mL"}, {"measurement": "T1/2", "setting": "[2]; [10]", "result": 13.6, "unit": "h"}, {"measurement": "AUC(0–t)", "setting": "[2]; [11]", "result": 146, "unit": "ng·h/mL"}, {"measurement": "AUC(0–∞)", "setting": "[2]; [11]", "result": 206, "unit": "ng·h/mL"}, {"measurement": "Cmax", "setting": "[2]; [11]", "result": 15.1, "unit": "ng/mL"}, {"measurement": "T1/2", "setting": "[2]; [11]", "result": 15.7, "unit": "h"}, {"measurement": "Tmax", "setting": "[2]; [11]", "result": 1.6, "unit": "h"}]}, {"compound": "O=C(NC[C@H](O)CO)c1ccncc1Nc1ccc(I)cc1F", "note": "[pimasertib, Pimasertib]", "values": [{"measurement": "patients who experienced a DLT", "setting": "[3]; DLT analysis set, 15 patients, both dose levels", "result": "three"}, {"measurement": "DLTs", "setting": "[3]; first three patients, 45 mg per day", "result": "no DLTs"}, {"measurement": "stable disease maintained for at least 12 weeks, share of the nine SD patients", "setting": "[4]", "result": 66.7, "unit": "%"}, {"measurement": "partial response as best overall response, patients", "setting": "[4]; efficacy analysis set n=15", "result": 13.3, "unit": "%"}, {"measurement": "progressive disease as best overall response, patients", "setting": "[4]; efficacy analysis set n=15", "result": 20.0, "unit": "%"}, {"measurement": "stable disease as best overall response, patients", "setting": "[4]; efficacy analysis set n=15", "result": 60.0, "unit": "%"}, {"measurement": "recommended single-agent dose for phase II trials", "setting": "[5]; administered continuously", "result": 60, "unit": "mg twice-daily"}, {"measurement": "dose-limiting toxicities", "setting": "[5]; single-agent phase I dose-escalation trial", "result": "skin rash, acneiform dermatitis, ocular events and stomatitis"}, {"measurement": "Patients with ≥1 pimasertib-related TEAE (by worst grade)", "setting": "[6]; 45 mg per day (n=10), grade 1/2", "result": 5}, {"measurement": "Patients with ≥1 pimasertib-related TEAE (by worst grade)", "setting": "[6]; 45 mg per day (n=10), grade 3", "result": 5}, {"measurement": "Patients with ≥1 pimasertib-related TEAE (by worst grade)", "setting": "[6]; 45 mg per day (n=10), grade 4", "result": 0}, {"measurement": "incidence of grade ≥3 pimasertib-related TEAEs", "setting": "[6]; 45 mg per day dose", "result": 50.0, "unit": "%"}, {"measurement": "Patients with ≥1 pimasertib-related TEAE (by worst grade)", "setting": "[6]; 60 mg per day (n=6), grade 1/2", "result": 2}, {"measurement": "Patients with ≥1 pimasertib-related TEAE (by worst grade)", "setting": "[6]; 60 mg per day (n=6), grade 3", "result": 2}, {"measurement": "Patients with ≥1 pimasertib-related TEAE (by worst grade)", "setting": "[6]; 60 mg per day (n=6), grade 4", "result": 2}, {"measurement": "incidence of grade ≥3 pimasertib-related TEAEs", "setting": "[6]; 60 mg per day dose", "result": 66.7, "unit": "%"}, {"measurement": "Patients with ≥1 pimasertib-related TEAE (by worst grade)", "setting": "[6]; Overall (n=16), grade 1/2", "result": 7}, {"measurement": "Patients with ≥1 pimasertib-related TEAE (by worst grade)", "setting": "[6]; Overall (n=16), grade 3", "result": 7}, {"measurement": "Patients with ≥1 pimasertib-related TEAE (by worst grade)", "setting": "[6]; Overall (n=16), grade 4", "result": 2}, {"measurement": "time to resolution of ocular AEs from day of onset", "setting": "[6]; all events except SRD in two patients", "result": "3 to 139", "unit": "days"}, {"measurement": "Asthenia, pimasertib-related TEAE, patients", "setting": "[6]; overall n=16", "result": 37.5, "unit": "%"}, {"measurement": "Diarrhoea, pimasertib-related TEAE, patients", "setting": "[6]; overall n=16", "result": 62.5, "unit": "%"}, {"measurement": "Serous retinal detachment (SRD), pimasertib-related TEAE, patients", "setting": "[6]; overall n=16", "result": 37.5, "unit": "%"}, {"measurement": "Skin/rash, pimasertib-related TEAE, patients", "setting": "[6]; overall n=16", "result": 50, "unit": "%"}, {"measurement": "patients with at least one ocular event during trial treatment", "setting": "[6]; overall n=16", "result": 43.8, "unit": "%"}, {"measurement": "patients with skin/rash events", "setting": "[6]; overall n=16", "result": 56.3, "unit": "%"}, {"measurement": "reduction of exposure (AUC0–∞) in the presence of FOLFIRI", "setting": "[7]; 45 mg per day cohort", "result": 8.3, "unit": "%"}, {"measurement": "reduction of maximum plasma concentration (Cmax) in the presence of FOLFIRI", "setting": "[7]; 45 mg per day cohort", "result": 16.3, "unit": "%"}, {"measurement": "Ratio of AUC(0–∞) test/reference", "setting": "[7]; 45 mg per day", "result": 0.917}, {"measurement": "Ratio of Cmax test/reference", "setting": "[7]; 45 mg per day", "result": 0.837}, {"measurement": "Ratio of AUC(0–∞) test/reference", "setting": "[7]; 60 mg per day", "result": 0.825}, {"measurement": "Ratio of Cmax test/reference", "setting": "[7]; 60 mg per day", "result": 0.751}, {"measurement": "CL/f", "setting": "[7]; single 45 mg dose, day 1, with FOLFIRI (test)", "result": 38.7, "unit": "L/h"}, {"measurement": "CL/f", "setting": "[7]; single 45 mg dose, day 8, alone (reference)", "result": 34.2, "unit": "L/h"}, {"measurement": "CL/f", "setting": "[7]; single 60 mg dose, day 1, with FOLFIRI (test)", "result": 42.1, "unit": "L/h"}, {"measurement": "CL/f", "setting": "[7]; single 60 mg dose, day 8, alone (reference)", "result": 44.6, "unit": "L/h"}, {"measurement": "effect on 5-FU metabolism", "setting": "[8]", "result": "does not alter 5-FU metabolism"}]}, {"compound": "CCc1c2c(nc3ccc(OC(=O)N4CCC(N5CCCCC5)CC4)cc13)-c1cc3c(c(=O)n1C2)COC(=O)[C@]3(O)CC", "note": "[Irinotecan, irinotecan, reference compound]", "values": [{"measurement": "reduction of Cmax in the presence of pimasertib", "setting": "[2]; [9]", "result": 2.7, "unit": "%"}, {"measurement": "reduction of exposure (AUC0–∞) in the presence of pimasertib", "setting": "[2]; [9]", "result": 8.9, "unit": "%"}, {"measurement": "AUC(0-inf)", "setting": "[2]; human, in vivo, 180 mg m^−2, AUC(0–∞), median, irinotecan 180 mg m^−2 infusion, day 1, with pimasertib (test)", "result": 10600, "unit": "ng·h/mL"}, {"measurement": "Cmax", "setting": "[2]; human, in vivo, 180 mg m^−2, Cmax, median, irinotecan 180 mg m^−2 infusion, day 15, without pimasertib (reference)", "result": 2120, "unit": "ng/mL"}, {"measurement": "Tmax", "setting": "[2]; human, in vivo, 180 mg m^−2, Tmax, median, irinotecan 180 mg m^−2 infusion, day 1, with pimasertib (test)", "result": 1.5, "unit": "h"}, {"measurement": "Ratio of AUC(0–∞) test/reference", "setting": "[2]; median", "result": 0.911}, {"measurement": "Ratio of Cmax test/reference", "setting": "[2]; median", "result": 0.973}, {"measurement": "Tmax", "setting": "[2]; [11]", "result": 1.54, "unit": "h"}]}]}
